{"source": "patent US8846316B2", "about": "“Biomarker for human liver cancer” (Industrial Technology Research Institute, priority 2012, dated 2014)", "tested_on": "miR-129-2 expression", "assay": "miR-129-2 expression by qRT-PCR after 5-aza-cytidine treatment of HCC cells", "assay_type": "cell-based, human", "conditions": "5 μM 5-azaC for 3 days", "method": "Hepatoma cell lines, HepG2, HuH7, J7, Hep3B, Mahlavu and SK-Hep-1 were maintained in Dulbecco's modified Eagle's medium at 37° C. in a humidified, 5% CO2 incubator. Twenty-four hours prior to treatment, HuH7 cells (1×10^5 cells/well) and other hepatoma cells (3×10^5 cells/well) were seeded into 6-well plates. Cells were treated with 5 μM 5-azaC (Sigma) for 3 days. Culture medium was replaced every 24 hours with fresh media containing 5-azaC.\nTotal RNA of hepatoma cells and HCC clinical samples was extracted using TRIzol reagent (Invitrogen). cDNA synthesis was performed with Superscript III reverse transcriptase according to the manufacturer's instructions (Invitrogen). Real-time quantitative polymerase chain reaction was performed on the ABI Prism 7000 sequence detection System using the SYBR Green PCR master mix (Applied Biosystems). For analysis of mature miRNA expression, TaqMan miRNA assay system (Applied Biosystems) was used as the manufacturer's manual. The relative expression level was analyzed by the ΔΔCt method, and U6 and RNU44 were used as an internal control.\nIn order to evaluate whether miR-129-2 expression was regulated by DNA methylation, the expression level of miR-129-2 between normal liver cells and HCC cells was examined by quantitative reverse transcription PCR."}
{"smiles": "Nc1ncn([C@@H]2O[C@H](CO)[C@@H](O)[C@H]2O)c(=O)n1", "note": "[5-aza-cytidine]", "values": [{"measurement": "miR-129-2 expression level elevated compared with untreated cell", "setting": "HuH7 cell", "result": 2.5, "unit": "fold"}, {"measurement": "miR-129-2 expression level elevated compared with untreated cell", "setting": "J7 cell", "result": 16, "unit": "fold"}]}
